Marks after values point to notes of the source that are not given here.
What was measured:
Assay type in all cases: in vivo
[1] = test system: submaxillary gland in SS mice; experiment: Histopathological examination and grading of submaxillary gland in SS mice (H&E, Chisholm-Mason scale); conditions: for Score: mice with submaxillary gland pathology Grade 0 / Score: mice with submaxillary gland pathology Grade I / Score: mice with submaxillary gland pathology Grade II / Score: mice with submaxillary gland pathology Grade III / Score: mice with submaxillary gland pathology Grade IV: two weeks of administration, four mice of each group
Experimental: Mice were sacrificed after two weeks of administration, and then submaxillary glands of four mice of each group were removed and pathologically observed. At first, the submaxillary gland should be fixed in 10% buffered formalin for 24 h, followed by washing, dehydration and clearing, wax-filling, embedding, sectioning and finally H&E staining. […] Results were graded pathologically.
Note: The histological findings graded of submaxillary glands according to the Chisholm-Mason scale; grade 0, absence of lymphocytic infiltration; grade I, slight lymphocytic infiltration; grade II, moderate lymphocytic infiltration; grade III, one focus of lymphocytic infiltration per 4 mm^2 tissue; grade IV, more than one focus of lymphocytic infiltration per 4 mm^2 tissue (Note: One focus of lymphocytic infiltration has been defined as an aggregate of 50 or more lymphocytes gathered in the labial gland stroma per 4 mm^2 of tissue.

[2] = test system: SS mice; experiment: Organic indexes (spleen, submaxillary gland, thymus) in SS mice
Excerpt: 2 Sjögren's syndrome model mice: C57BL/6 female mice housed in a SPF environment with successful modeling (The animal model was made via repeated multi-point intracutaneous injection of submaxillary gland homogenate of homologous mice to tail and back of mice). The animal model was made via repeated multi-point intracutaneously injection of submaxillary gland homogenate of homologous mice to tail and back of mice, and the mice with successful modeling were randomly assigned to each group according to comprehensive conditions of mice. At the same time, the average weight and status of each group of mice should be as close as possible. Paeoniflorin-6′-O-benzenesulfonate, white crystalline powder, purity 98.5%, was dissolved in trace ethanol (75 mg of CP-25 was soluble in 40 μl of ethanol), and then sodium carboxymethylcellulose was added to formulate a suspension of CP-25. Corresponding dose gradient, low dose (17.5 mg/kg), medium dose (35 mg/kg) and high dose (70 mg/kg) of said pharmaceutical should be prepared before medication, stored in 4° C. refrigerator for use. High dose of said pharmaceutical should be incubated for half an hour before use.

[3] = test system: NOD model mice; experiment: Organic indexes (spleen, submaxillary gland, thymus) in NOD model mice
[4] = test system: NOD mice; experiment: Saliva amount in NOD mice; conditions: for Saliva amount in NOD mice, Pre-administration: baseline before administration
Experimental: Before measurement, mice were anesthetized via intraperitoneal injection of 0.05 ml of 2.4% pentobarbital sodium, and the satisfactory anesthesia was smooth breathing, corneal reflex disappearance and limb muscle relaxation. After complete anesthesia, a mouse was placed in slightly tilted trendelenburg position, and its body was kept warm using the heater. The mouse was injected intraperitoneally with 0.1 ml of 0.025 mg/ml Pilocarpine, and 5 min later, a weighed cotton ball was placed in the mouth of the mouse for 10 min. After taking the ball out, the saliva weight of mice was measured by the wet weight method.
Therapeutic effects of on Sjögren's syndrome CP-25 in NOD mice.

[5] = test system: spleen CD11c+ CD80+ DC; experiment: Spleen CD11c+ CD80+ DC in SS model mice (FIG. 8)
Excerpt: FIG. 8 Effects of CP-25 on spleen CD11c^+ CD80^+ DC in SS model mice.

[6] = test system: Sjögren's syndrome model mice; experiment: Water intake in Sjögren's syndrome model mice; conditions: therapeutic mice, after a week of administration; model control always tends to rise
Experimental: In this invention, low dose (17.5 mg/kg), medium dose (35 mg/kg) and high dose (70 mg/kg) of CP-25 were respectively administrated by gavage to each of randomly assigned group of Sjögren's syndrome model mice for two weeks. Water intake, saliva amount and submaxillary gland pathological analysis and score were determined respectively, on the day before administration, the 7th day and 14th day after administration. The therapeutic effects of CP-25 on Sjögren's syndrome were evaluated by comparison of changes of each index before and after treatment.
However, the water intake in mice of model control group always tends to rise.

[7] = test system: spleen B lymphocytes; experiment: Spleen B lymphocyte proliferation in NOD model mice (FIG. 12B)
Excerpt: FIG. 12 Effects of CP-25 on spleen T and B lymphocyte proliferation in NOD model mice.
A: T lymphocytes; B: B lymphocytes

## C[C@@]12C[C@@]3(O)O[C@H](O1)C1(COC(=O)c4ccccc4)[C@@H]3CC12OC1OC(COS(=O)(=O)c2ccccc2)C(O)C(O)C1O (stereo partly drawn) [CP-25, Paeoniflorin-6′-O-benzenesulfonate]
[1]; 17.5 mg/kg
  Score: mice with submaxillary gland pathology Grade 0: 0
  Score: mice with submaxillary gland pathology Grade I: 0
  Score: mice with submaxillary gland pathology Grade II: 0
  Score: mice with submaxillary gland pathology Grade III: 1
  Score: mice with submaxillary gland pathology Grade IV: 3
[1]; 35 mg/kg
  Score: mice with submaxillary gland pathology Grade 0: 0
  Score: mice with submaxillary gland pathology Grade I: 0
  Score: mice with submaxillary gland pathology Grade II: 0
  Score: mice with submaxillary gland pathology Grade III: 1
  Score: mice with submaxillary gland pathology Grade IV: 3
[1]; 70 mg/kg
  Score: mice with submaxillary gland pathology Grade 0: 0
  Score: mice with submaxillary gland pathology Grade I: 0
  Score: mice with submaxillary gland pathology Grade II: 0
  Score: mice with submaxillary gland pathology Grade III: 3
  Score: mice with submaxillary gland pathology Grade IV: 1^#
[1]; Example 3, dose not given
  Pathological changes in submaxillary gland: apparently ameliorate the pathological changes
[1]; high dose of CP-25
  Pathological changes in submaxillary glands (H&E staining score, rank-sum test): apparently ameliorate the pathological changes
[2]; 17.5 mg/kg
  Spleen index: 9.00 ± 1.61 mg/g
  Submaxillary gland index: 3.56 ± 0.62 mg/g
  Thymus index: 1.06 ± 0.31 mg/g
[2]; 35 mg/kg
  Spleen index: 8.92 ± 1.33 mg/g
  Submaxillary gland index: 3.32 ± 0.66 mg/g
  Thymus index: 1.31 ± 0.42 mg/g
[2]; 70 mg/kg
  Spleen index: 8.51 ± 1.42 mg/g
  Submaxillary gland index: 3.24 ± 0.57 mg/g
  Thymus index: 1.03 ± 0.44 mg/g
[2]; Example 2
  Increasing of submaxillary gland index (in words): significantly suppress the increasing
[3]; 17.5 mg/kg
  Spleen index: 9.5 ± 4.2 mg/g
  Submaxillary gland index: 4.5 ± 0.8^ mg/g
  Thymus index: 1.3 ± 0.7 mg/g
[3]; 35 mg/kg
  Spleen index: 4.2 ± 0.6 mg/g
  Submaxillary gland index: 4.3 ± 0.6 mg/g
  Thymus index: 1.1 ± 0.6 mg/g
[3]; 70 mg/kg
  Spleen index: 4.3 ± 0.7 mg/g
  Submaxillary gland index: 4.2 ± 0.6 mg/g
  Thymus index: 1.4 ± 0.5 mg/g
[3]; Example 5
  Increasing of submaxillary gland index (in words): significantly suppress the increasing
[4]; 17.5 mg/kg
  Saliva amount in NOD mice, One week after administration: 15.20 ± 1.04 mg/each mouse/10 min
  Saliva amount in NOD mice, Two weeks after administration: 14.25 ± 1.46 mg/each mouse/10 min
[4]; 35 mg/kg
  Saliva amount in NOD mice, One week after administration: 15.60 ± 1.50 mg/each mouse/10 min
  Saliva amount in NOD mice, Two weeks after administration: 15.25 ± 1.36 mg/each mouse/10 min
[4]; 70 mg/kg
  Saliva amount in NOD mice, One week after administration: 18.20 ± 1.58^#Δ mg/each mouse/10 min
  Saliva amount in NOD mice, Two weeks after administration: 18.25 ± 1.50 mg/each mouse/10 min
[4]; dose group 17.5 mg/kg
  Saliva amount in NOD mice, Pre-administration: 19.50 ± 1.38 mg/each mouse/10 min
[4]; dose group 35 mg/kg
  Saliva amount in NOD mice, Pre-administration: 19.33 ± 3.20 mg/each mouse/10 min
[4]; dose group 70 mg/kg
  Saliva amount in NOD mice, Pre-administration: 19.51 ± 1.87 mg/each mouse/10 min
[4]; NOD model mice, Example 4
  Saliva amount (in words): significantly increase
[4]; NOD model mice, Example 4, saliva amount
  Onset time of curative effects versus comparators: earlier than that of TGP, or Pae
[5]
  Expression of surface molecular CD80+ on spleen CD11c+ DC: significantly inhibit
[6]
  Water intake: begins to drop off
[7]
  Spleen B lymphocyte proliferation: significantly inhibit

— US20200147116A1, “Use of Paeoniflorin-6'-O-benzenesulfonate in treatment of Sjögren's syndrome” (NINGBO ZHIMING BIOTECHNOLOGY CO., LTD., priority 2017, published 2020)
